Data from patent publication EP1059033A1, “INDUSTRIAL ANTIBACTERIAL/ANTIFUNGAL AGENTS, ALGICIDES AND ANTI-BIOLOGICAL ADHESION AGENTS CONTAINING BENZYLAMINES” (Nissan Chemical Industries, Ltd., priority 1998, dated 1999).
Values after ≈ are worked out from the molar mass of the structure shown. Like-named read-outs stand apart in the source and are kept apart here.

Tests used:
Assay type in all cases: cell-based
[1] = system: freshwater green alga (Selenastrum capricornutum); assay: Inhibition of propagation of freshwater green alga (Example 4); settings: after 72 hours, cell number vs non-treated lot; for inhibition at 0.05 ppm: 50ppb, read-out: Propagation inhibiting rate(%) 50ppb; for inhibition at 0.5 ppm: 500ppb, read-out: Propagation inhibiting rate(%) 500ppb
Procedure: A predetermined amount of each of the compounds of the invention was dissolved in a culture medium containing 10^5 /ml of a freshwater green alga (Selenastrum capricornutum) at a logarithmic growth phase to prepare samples having a concentration of the compound of the invention in the medium of 500 ppb and 50ppb respectively. The samples were stationary cultured at 23±1 °C for […] under continuous illumination.
After 72 hours, the number of cells was measured using a hemacytometer to obtain propagation rate. The propagation inhibiting rate was calculated from comparison with the non-treated lot.

[2] = system: Trichophyton mentagrophytes; settings: 72 h, 100 ppm
Procedure: 31.3 ml of Trichophyton mentagrophytes to be tested was added to 125 ml of a potato dextrose agar culture medium (Nissui Seiyaku Co.). The medium was stirred not to foam the solutions, poured into plates uniformly and solidified.
Thereafter, predetermined amounts of the compounds of the invention were weighted and diluted with acetone to predetermined concentrations.
Paper disks were impregnated with samples containing predetermined amounts of the compounds of the invention, laid on a filter, dried with air and placed on a plate containing test microbe at equal intervals.
Trichophyton mentagrophytes was cultured at 28 °C for 3 days in a thermostatic chamber and the diameter of each inhibiting zone was measured to evaluate the activity of each compound. Symbols in the table mean the followings; • A: Trichophyton mentagrophytes, • ++: strongly inhibiting zone (equal to or more than 21 mm) is observed, • +: inhibiting zone (10 to 20 mm) is observed, • -: no inhibiting zone is observed.

[3] = system: Trichophyton mentagrophytes; assay: Agar dilution MIC (Example 2); settings: 168 h, agar plate, 27 °C, 7 days
Procedure: Series of diluted samples (20000, 10000, 5000, 2500, 2000, 1250, 625, 313, 156, 78, 39, 20, 10, 5, 2.5, 1.25 mg/l) of the compounds of the invention were prepared using dimethylsulfoxide. A sensitive culture medium-N (Nissui Seiyaku Co.) was used for bacteria and a potato dextrose agar culture medium (Nissui Seiyaku Co.) was used for fungi. 0.5 ml of each sample was added to and mixed with 9.5 ml of the culture medium, poured into a Petri dish and solidified to obtain a plate. As a result, the concentration of the compounds of the invention in the agar culture medium were 1000, 500, 250, 125, 100, 62.5, 31.3, 15.6, 7.8, 3.9, 2.0, 1.0, 0.5, 0.25, 0.125, 0.062 mg/l. The bacterium inoculated were cultured in a bouillon for the assay of sensitivity (Nissui Seiyaku Co.) at 37 °C for 20 hours, and the fungi were cultured in the potato dextrose agar culture medium (Nissui Seiyaku Co.) for 10 days and then a 10^6 CFU/ml suspension was prepared from each of them. A test bacteria or fungi suspension was streaked on an agar plate containing the compound of the present invention with platinum wire loop, and the agar plate was cultured at 37±1 °C for 18 to 20 hours for bacteria or at 27 °C for 7 days for fungi. A concentration at which no growth was seen was taken as minimum inhibitory concentration [MIC(mg/l)]. Symbols in the table mean the followings; • A: Bacillus subtilis, • B: Trichophyton mentagrophytes, • C: Rhodotorula mucilaginosa.

Chaetomium globosum = assay: Agar dilution MIC (Example 3); settings: 168 h, agar plate, 27 °C, 7 days
Procedure: (§1) Series of diluted samples (20000, 10000, 5000, 2500, 1250, 625, 313, 156, 78, 39 mg/l) of the compounds of the invention were prepared using dimethylsulfoxide. A sensitive culture medium-N (Nissui Seiyaku Co.) was used for bacteria and a potato dextrose agar culture medium (Nissui Seiyaku Co.) was used for fungi. 0.5 ml of each sample was added to and mixed with 9.5 ml of the culture medium, poured into a Petri dish and solidified to obtain a plate. As a result, the concentration of the compounds of the invention in the agar culture medium were 1000, 500, 250, 125, 62.5, 31.3, 15.6, 7.8, 3.9, 2.0 mg/l. The bacterium inoculated were cultured in a bouillon for the assay of sensitivity (Nissui Seiyaku Co.) at 37 °C for 20 hours, and the fungi were cultured in the potato dextrose agar culture medium (Nissui Seiyaku Co.) for 10 days and then a 10^6 CFU/ml suspension was prepared from each of them. A test bacteria or fungi suspension was streaked on an agar plate containing the compound of the present invention with platinum wire loop, and the agar plate was cultured at 37±1 °C for 18 to 20 hours for bacteria or at 27 °C for 7 days for fungi. A concentration at which no growth was seen was taken as minimum inhibitory concentration (MIC). Symbols in the tables mean the followings; • A: Bacillus subtilis, • B: Trichophyton mentagrophytes, • C: Staphylococcus aureus, • D: Aspergillus niger, • E: Penicillium funiculosum, • F: Candida albicans, • G: Micrococcus luteus, • H: Corynebacterium aquaticum, • I: Chaetomium globosum, • J: Fusarium moniliforme, • K: Saccharomyces cerevisiae, • L: Rhodotorula rubra, • M: Cladosporium cladosporioides, • N: Alternaria alternata.

[4] = system: Corynebacterium aquaticum; assay: Agar dilution MIC (Example 3); settings: Leifsonia aquatica, agar plate, 37±1 °C, 18 to 20 hours
Procedure: as §1

Saccharomyces cerevisiae = assay: Agar dilution MIC (Example 3); settings: 168 h, agar plate, 27 °C, 7 days
Procedure: as §1

[5] = system: freshwater blue-green alga (Microcystis aeruginosa); assay: Inhibition of propagation of freshwater algae (Example 6); settings: 500ppb
Procedure: (§2) A predetermined amount each of the compounds of the invention was dissolved in a culture medium containing 10^5 /ml of a freshwater alga at a logarithmic growth phase to prepare samples having a concentration of the compound of the invention in the medium of 500 ppb and 50 ppb respectively. A shaking culture at 100 rpm was performed for […] under continuous illumination at 20±2 °C for freshwater diatom and at 23±2 °C for other algae.
(§3) After 72 hours and 168 hours, the […] of cells was measured using a hemacytometer to obtain propagation rate. The propagation inhibiting rate was calculated from comparison with the non-treated lot. Symbols in the tables mean the followings; • A: freshwater green alga (Chlorella pyrenoidosa), • B: freshwater blue-green alga (Microcystis aeruginosa), • C: freshwater diatom (Diatoma elongatum), • D: freshwater green alga (Scenedesmus pannonicus).

[6] = system: freshwater green alga (Scenedesmus pannonicus); assay: as above; settings: Desmodesmus pannonicus, 500ppb
Procedure: as §2, §3

[7] = system: seawater diatom [Nitzschia closterium]; assay: Inhibition of propagation of seawater diatom (Example 5); settings: Cylindrotheca closterium, 72 h, read-out: Propagation inhibiting rate(%) 500ppb
Procedure: A predetermined amount of each of the compounds of the invention was dissolved in culture media containing 10^5 /ml of a seawater diatom [Nitzschia closterium] at a logarithmic growth phase to prepare samples having a concentration of the compound in the medium of 500 ppb. The samples were stationary cultured at 22±1 °C for […] under continuous illumination.
After 72 hours, cells were collected by centrifugation and disrupted by addition of methanol to extract chlorophyll, and the amount of chlorophyll was measured from absorbance using a spectrophotometer to obtain propagation rate. The propagation inhibiting rate was calculated from comparison with the non-treated lot.

Compound	inhibition at 0.5 ppm [1]	MIC [3]	further results
CN(Cc1ccc(C(C)(C)C)cc1)Cc1cc(Cl)cc(Cl)c1 [Compound 1]	94%	–	inhibition at 0.05 ppm [1]: 79%; Judgment (Target bacteria: A) [2]: ++ (strongly inhibiting zone (equal to or more than 21 mm) is observed)
CN(Cc1ccc(C(C)(C)C)cc1)Cc1cccc(Cl)c1 [Compound 10]	95%	0.25 µg/mL (≈ 0.828 µM)	inhibition at 0.05 ppm [1]: 87%; Judgment (Target bacteria: A) [2]: ++ (strongly inhibiting zone (equal to or more than 21 mm) is observed)
Cc1cccc(CN(C)Cc2ccc(C(C)(C)C)cc2)c1 [Compound 11]	93%	< 1 µg/mL	MIC (Chaetomium globosum): 63 µg/mL (≈ 224 µM); MIC [4]: 63 µg/mL (≈ 224 µM); inhibition at 0.05 ppm [1]: 70%
CN(Cc1ccc(C(C)(C)C)cc1)Cc1cccc(C(F)(F)F)c1 [Compound 12]	90%	< 1 µg/mL	MIC (Chaetomium globosum): 125 µg/mL (≈ 373 µM); MIC (Saccharomyces cerevisiae): 125 µg/mL (≈ 373 µM)
COc1cccc(CN(C)Cc2ccc(C(C)(C)C)cc2)c1 [Compound 13]	92%	< 1 µg/mL	MIC [4]: 63 µg/mL (≈ 212 µM)
Clc1ccc(CNCc2c(Cl)cccc2Cl)cc1Cl [Compound 15]	94%	3.9 µg/mL (≈ 11.6 µM)	inhibition at 0.5 ppm ([5]; 72hr, read-out: Propagation inhibiting rate(%) 500ppb 72hr): 92%; inhibition at 0.5 ppm ([5]; 168hr, read-out: Propagation inhibiting rate(%) 500ppb 168hr): 100%; inhibition at 0.5 ppm ([6]; 72hr, read-out: Propagation inhibiting rate (%) 500ppb 72hr): 95%; inhibition at 0.5 ppm ([6]; 168hr, read-out: Propagation inhibiting rate (%) 500ppb 168hr): 98%
CN(Cc1ccc(C(C)(C)C)cc1)Cc1ccccc1Cl [Compound 17]	83%	1 µg/mL (≈ 3.31 µM)	–
CN(Cc1ccc(C(C)(C)C)cc1)Cc1ccc(Cl)cc1Cl [Compound 18]	–	1 µg/mL (≈ 2.97 µM)	–
CN(Cc1ccc(C(C)(C)C)cc1)Cc1c(F)c(F)c(F)c(F)c1F [Compound 21]	–	7.8 µg/mL (≈ 21.8 µM)	–
CN(Cc1ccc(C(C)(C)C)cc1)Cc1cc(Cl)ccc1Cl [Compound 22]	–	1 µg/mL (≈ 2.97 µM)	–
CN(Cc1ccc(C(C)(C)C)cc1)Cc1cccc(Cl)c1Cl [Compound 24]	85%	0.125 µg/mL (≈ 0.372 µM)	–
CN(Cc1ccc(Cl)c(Cl)c1)C1CCc2ccccc21 (centres unmarked) [Compound 25]	95%	15.6 µg/mL (≈ 50.9 µM)	–
CN(Cc1ccc(C(C)(C)C)cc1)C1CCOc2ccccc21 (centres unmarked) [Compound 26]	–	1 µg/mL (≈ 3.23 µM)	–
CC(C)c1ccc(CN(C)Cc2cccc3ccccc23)cc1 [Compound 29]	96%	–	inhibition at 0.05 ppm [1]: 95%; inhibition at 0.5 ppm [7]: 76%; Judgment (Target bacteria: A) [2]: ++ (strongly inhibiting zone (equal to or more than 21 mm) is observed)
CN(Cc1ccc(C(C)(C)C)cc1)Cc1c(Cl)ccc(Cl)c1Cl [Compound 33]	–	1 µg/mL (≈ 2.7 µM)	–
CCCCCCc1ccc(CN(C)Cc2cccc3ccccc23)cc1 [Compound 36]	83%	2 µg/mL (≈ 5.79 µM)	–
CN(Cc1ccc(Cl)c(Cl)c1)Cc1cccc2ccccc12 [Compound 37]	69%	0.5 µg/mL (≈ 1.51 µM)	–
COc1ccc(CN(C)Cc2cccc3ccccc23)cc1 [Compound 38]	75%	7.8 µg/mL (≈ 26.8 µM)	–
Cc1ccc(CN(C)Cc2cccc3ccccc23)cc1 [Compound 39]	90%	3.9 µg/mL (≈ 14.2 µM)	–
CN(Cc1cc(Cl)cc(Cl)c1)Cc1cccc2ccccc12 [Compound 40]	61%	–	inhibition at 0.05 ppm [1]: 61%
Cc1ccc(CN(C)Cc2cccc3ccccc23)cc1C [Compound 41]	97%	7.8 µg/mL (≈ 27 µM)	inhibition at 0.05 ppm [1]: 66%
CN(Cc1ccc(F)c(F)c1)Cc1cccc2ccccc12 [Compound 45]	87%	15.6 µg/mL (≈ 52.5 µM)	–
CN(Cc1ccc(C#N)cc1)Cc1cccc2ccccc12 [Compound 46]	96%	15.6 µg/mL (≈ 54.5 µM)	–
CC(C)Oc1ccc(CN(C)Cc2cccc3ccccc23)cc1 [Compound 47]	71%	7.8 µg/mL (≈ 24.4 µM)	inhibition at 0.05 ppm [1]: 63%
CN(Cc1c(Cl)cccc1Cl)Cc1cccc2ccccc12 [Compound 48]	77%	–	inhibition at 0.5 ppm [7]: 77%
Cc1cccc(CN(C)Cc2cccc3ccccc23)c1 [Compound 50]	93%	15.6 µg/mL (≈ 56.6 µM)	–
CCCOc1ccc(CN(C)Cc2cccc3ccccc23)cc1 [Compound 51]	–	15.6 µg/mL (≈ 48.8 µM)	–
